Where two headings read alike, the source gives them in different places. No end group written: not given here.
Legend:
[1] = system: myeloperoxidase activity in mouse ear; experiment: Myeloperoxidase activity in AA-treated mouse ear tissue (PMN marker); type: in vivo; settings: Table II
Experimental: Myeloperoxidase activity in ear tissue was measured as a marker for the presence or absence of polymorphonuclear leukocytes (PMNs) (Barone et al., 1991, J. Neurosci. Res. 29:336-345). After measurement of ear thickness, ears were dissected from the mice and homogenized in 50 mM Tris-HCL, pH 7.4 at 4° C. to give a 10% (w/v) homogenate. Aliquots of the homogenate were used to determine the amount of myeloperoxidase activity present in the tissue using o-dianisidine (Sigma Chem Co., St. Louis Mo.) and hydrogen peroxide as substrates and monitoring chromophore generation at 460 nm (Barone et al., 1991, J. Neurosci. Res. 29:336-345).

neutrophils [2] = experiment: Neutrophil chemotaxis to f-Met-Leu-Phe (Neuroprobe chamber, fluorescence 530 nm); type: cell-based; settings: 15 min pre-exposure; read at 1 hr; FIG. 3
Experimental: (§1) The ability of CT-112 (SEQ. ID NO: 1) to inhibit chemotaxis of neutrophils in response to a variety of agents was assessed using Neuroprobe chemotaxis chambers. For these assays, neutrophils were resuspended in Hank's balanced salt solution with Ca^2+ and Mg^2+ to give a 5×10^6 cells/ml suspension after the cells were labeled with 1',7'-bis(2-carboxyethyl)-5-(6)-carboxyfluorescein. The neutrophils were exposed to CT-112 (SEQ. ID NO: 1) for approximately 15 min prior to addition to the chemotaxis chambers. CT-112 (SEQ. ID NO: 1) was present in both the top and bottom of the chambers, and the chemoattractant, either f-Met-Leu-Phe, leukotriene B4 or interleukin-8, was added to the bottom of chamber. Cells which had migrated through the membrane were determined by fluorescence at 530 nm at 1 hr after initiation of the assay.

neutrophils [3] = experiment: Neutrophil chemotaxis to leukotriene B4; type: cell-based; settings: 15 min pre-exposure; read at 1 hr; FIG. 4
Experimental: as §1

neutrophils [4] = experiment: Neutrophil chemotaxis to interleukin-8; type: cell-based; settings: 15 min pre-exposure; read at 1 hr; FIG. 5
Experimental: as §1

neutrophils [5] = type: cell-based
From the text: In addition, CT-112 (SEQ. ID NO: 1) was not cytotoxic to neutrophils, as determined by viability testing using trypan blue exclusion (FIG. 3).

[6] = system: carrageenan-induced peritonitis; experiment: Carrageenan-induced peritonitis, inflammatory cell influx in peritoneal lavage; type: in vivo, mouse; settings: 60 mg/kg/day minipump
Experimental: Mice (C57BL/6UAF, females, 12 weeks old) were implanted with Alzet mini pumps set to deliver 60 mg CT-112/kg/day. Six days post-implantation, the mice were challenged with an intraperitoneal injection of 0.3 ml of carrageenan in PBS (10 mg/ml). The peritoneal cavity was lavaged with 15 ml of Hank's Balanced Salt Solution (Ca^2+ - and Mg^2+ -free) at 24, 48 and 72 hr post-challenge. The lavage fluid was centrifuged (500 g, 5 min), fixed with LeukoStat fixative and stained with LeukoStat staining solution. The slides were analyzed under a microscope for the different types of inflammatory cells, such as macrophages, lymphocytes and neutrophils. At the 48-hr time point, 5 control mice were also lavaged.

[7] = system: type-II collagen-induced arthritis; type: in vivo, mouse
Experimental: Mice (DBA/1, 10-12 weeks old, Jackson Laboratories) were randomly assigned to one of 3 groups […]. CT-112 (SEQ. ID NO: 1) was prepared for injection by dissolving in sterile PBS. CT-112 (SEQ. ID NO: 1) was administered daily according to the following schedule: a) Control animals (0.1 ml of sterile PBS) (7 mice); b) Low dose CT-112 (0.1 ml sterile PBS containing 0.25 mg CT-112 at 10 mg/kg) (8 mice); and c) High dose CT-112 (0.1 ml sterile PBS containing 2.5 mg of CT-112 at 100 mg/kg) (8 mice). Three days after initial dosing with CT-112 (SEQ. ID NO: 1), all mice were injected intradermally at the base of the tail with 100 μg of bovine type-II collagen in Freund's complete adjuvant. Mice were monitored daily for the onset of disease, and weighed twice weekly with overall health status noted. Arthritis-affected animals were clinically assessed 5 times per week until 10 weeks post-immunization. Paw measurements were taken 3 times per week. Mice lacking signs of arthritis 10 weeks post-immunizationwere considered disease-free. All mice were pre-bled prior to the start of the trial, subsequently again at 2 and 4 weeks post-immunization, again at the onset of CIA, and finally at the termination of the study. Sera were separated and stored at -80° C. ELISA assays were performed to determine anti-collagen antibody concentrations. Spleen and lymph nodes were removed at sacrifice, and single cell suspensions prepared therefrom. Mitogen responses to Con A and LPS, as well as antigen-specific responses to type-II collagen, were determined. Appropriate statistical comparisons (Chi square, Student's T-test and non-parametric median comparisons) were performed using SPSS/PC software to assess the influence of CT-112 (SEQ. ID NO: 1) at both low and high doses on the incidence, onset, severity and progression of collagen-induced arthritis, the antibody response to collagen, T-cell and B-cell mitogen responses, and T-cell specific responses to type-II collagen.

Salmonella = Salmonella reverse mutation assay; type: cell-based; settings: 100-5,000 μg/ml, with or without rat liver microsomal enzyme activation
From the text: The mutagenic potential of CT-112 (SEQ. ID NO: 1) has been assessed.

Acute toxicity in mice = type: in vivo, mouse; settings: intravenous 100, 500 or 1,000 mg/kg
Experimental: Acute toxicity of CT-112 (SEQ. ID NO: 1) in mice and rats was assessed. Mice were dosed by intravenous injection with CT-112 (SEQ. ID NO: 1) at 100, 500 or 1,000 mg/kg.

[8] = system: mouse bone marrow polychromatic erythrocyte; settings: in vivo

Sequence: TTSQVRPR [CT-112, octapeptide derived from platelet factor 4]
- Myeloperoxidase Activity ([1]; 0.05 mg/animal/day minipump): 19.6 ± 15.6 μmole of chromophore formed/mi
- Myeloperoxidase Activity ([1]; 0.1 mg/animal/day minipump): 17.0 ± 9.6 μmole of chromophore formed/mi
- Myeloperoxidase Activity ([1]; 1.0 mg/animal/day minipump): 14.7 ± 13.3 μmole of chromophore formed/mi
- chemotactic migration of neutrophils to f-Met-Leu-Phe (neutrophils [2]): effectively inhibited
- chemotactic migration of neutrophils to LTB4 (neutrophils [3]): effectively inhibited
- chemotactic migration of neutrophils to interleukin-8 (neutrophils [4]): not to interleukin-8
- cytotoxicity to neutrophils (trypan blue exclusion) (neutrophils [5]): not cytotoxic
- Absolute Cell Number, Lymphocytes ([6]; 24 hr post carrageenan): 16.9 ± 5.9
- Absolute Cell Number, Macrophages ([6]; 24 hr post carrageenan): 19.5 ± 10
- Absolute Cell Number, Neutrophils ([6]; 24 hr post carrageenan): 106 ± 29
- Absolute Cell Number, Lymphocytes ([6]; 48 hr post carrageenan): 12.5 ± 7.6
- Absolute Cell Number, Macrophages ([6]; 48 hr post carrageenan): 126 ± 43
- Absolute Cell Number, Neutrophils ([6]; 48 hr post carrageenan): 134 ± 77
- Absolute Cell Number, Lymphocytes ([6]; 72 hr post carrageenan): 45.1 ± 42
- Absolute Cell Number, Macrophages ([6]; 72 hr post carrageenan): 255 ± 125
- Absolute Cell Number, Neutrophils ([6]; 72 hr post carrageenan): 48.4 ± 28
- anti-collagen antibody reduction in serum ([7]; 4 wks post-immunization, high dose group, p=0.028, FIG. 14): statistically significant
- effects on synovitis and pannus (histopathology) ([7]; both high and low doses, FIG. 13): not significant
- disease-induced loss of joint architecture (histopathology) ([7]; both high and low doses, p≤0.05, FIG. 13): significantly reducing
- spleen cell response to Con A and to LPS ([7]; cells from treated mice): neither immunosuppression nor immunoactivation
- final incidence of CIA ([7]; high dose, 100 mg/kg daily): 50%
- Maximum paw swelling ([7]; low and high dose): not influenced
- final incidence of CIA ([7]; low dose, 10 mg/kg daily): 62.5%
- involved paws in remission at the conclusion of the trial ([7]; low dose, 10 mg/kg daily): 25%
- number of involved paws ([7]; low dose, 10 mg/kg daily, p=0.035 vs control, FIG. 11): significantly fewer paws
- number of revertants (histidine independent growth) (Salmonella): did not cause an increase in the number of revertants
- lesions at necropsy (Acute toxicity in mice): No lesions were visible at necropsy
- mean body weight and mean body weight gain vs control (Acute toxicity in mice): no statistical differences
- clinical effects (Acute toxicity in mice; one mouse at 500 and two at 1,000 mg/kg, day of treatment): Minimal transient clinical effects (hypoactivity and hypersensitivity)
- micronuclei [8]: did not induce a significant increase in micronuclei
